Data on 4 compounds can be found in patent publication US4107308A, “Imidazo[1,5-d]-as-triazines” (American Cyanamid Company, priority 1977, dated 1978).

In test [1] the test system is cyclic-AMP phosphodiesterase (mouse skin PDE). Description: Mouse skin phosphodiesterase (PDE) inhibition test (A). Format: biochemical. Further details: key: Active: A compound is considered active if it inhibits more than theophylline, that is, to 50% of control of 1 mM concentration of compound, or to 80% of control for 0.05 mM concentration of compound. Particulars: final concentration of test compound 10 μg./ml.; epidermal homogenate supernatant of hairless mice.

In test [2] the test system is spontaneous hypertensive rats. The experiment in a line: Anti-hypertensive test in conscious spontaneous hypertensive rats, mean arterial blood pressure by femoral artery puncture. Format: in vivo, rat. The note with it: 100 mg./kg. by gavage in 2% starch, second identical dose at the 24th hour, vehicle controls 166. The procedure:
These compounds have been tested pharmacologically and found to have such properties with a desirable wide spread between does producing lowered blood pressure and toxic symptoms. In determining this effect of these compounds on hypertension, adult male, 16-20 weeks old, spontaneous hypertensive rats from Taconic Farms, Germantown, New York, weighing about 300 grams are used. The rats are dosed by gavage with the test compounds at the indicated dose in mg. per kg. of body weight. All doses of drug were suspended in 2% starch (2 ml./kg.). A second identical dose of the test compound is given at the 24th hour. The mean arterial blood pressure (MAP) of the conscious rats is measured directly by femoral artery puncture at the 28th hour.

Test [3] in a line: Herbicidal activity.

The structures appear in SMILES notation.

Regarding `c1cc(Nc2nncc3cncn23)n[nH]1` [4-(3-Pyrazolylamino)-imidazo[1,5-d]-as-triazine], the “Mouse Skin Phosphodiesterase (A)” value in test [1] is “Active”. In test [2], the “MAP (mm. Hg) 28th hour” value amounted to 134 mm. Hg.

Consider `CN(C)CCNc1nncc2cncn12` [4-[(2-Dimethylaminoethyl)amino]-imidazo[1,5-d]-as-triazine], for which, in test [1], the “Mouse Skin Phosphodiesterase (A)” value was “Active”.

As to `CNc1nncc2cncn12` [4-methylamino-imidazo[1,5-d]-as-triazine, 4-Methylamino-imidazo[1,5-d]-as-triazine], the “MAP (mm. Hg) 28th hour” value in test [2] came out at 131 mm. Hg.

With `CCCc1nc(C)c2cnnc(SC)n12` [Example 61, 8-Methyl-4-(methylthio)-6-propylimidazo[1,5-d]-as-triazine], in test [3], the herbicidal activity result was “possesses herbicidal activity”.
